Measurements: patent publication US20070197590A1, “SUBSTITUTED DIPIPERIDINE CCR2 ANTAGONISTS” (priority 2006, published 2007)
Like-named read-outs stand apart in the source and are kept apart here.

Columns and labels:
[1] = test system: MCP-1 induced calcium ion influx in THP-1 cells; assay: MCP-1 Induced Calcium Mobilization in THP-1 Cells; format: cell-based; conditions: for IC50: 0.2 μM MCP-1, FLIPR, read-out: Inhibition of MCP-1 Induced Calcium Ion Influx IC50; for inhibition at 25 µM: THP-1, test concentration of 25 μM, given where an IC50 value was not obtained, read-out: Inhibition of MCP-1 Induced Calcium Ion Influx, percent inhibition
Protocol: THP-1 cells were plated at a density of 8×10^5 cells/mL (100 μL/well) into poly-D lysine coated clear bottom, black 96 well plates. The cells were loaded with 5 μM fluo-3 for 45 minutes. The fluo-3 washed off and cells were incubated with varying concentrations of test compound for 15 minutes. The change in calcium ion concentration upon addition of 0.2 μM MCP-1 was determined using FLIPR and compared to vehicle.
Table 2 lists IC50 values for inhibition of MCP-1 induced influx of calcium ions.

CCR2 = molecular target: T1, CCR2 (Homo sapiens, UniProt P41597); assay: MCP-1 Receptor Binding Assay in THP-1 Cells; conditions: for IC50: THP-1 cells, 0.5 nM 125I labeled MCP-1, 2 hours at 30° C., read-out: Inhibition of MCP-1 Binding IC50; for inhibition at 25 µM: test concentration of 25 μM, given where an IC50 value was not obtained, read-out: Inhibition of MCP-1 Binding, percent inhibition
T1 construct: host or cells: THP-1 cells
T1 sequence (P41597 1-360 isoform P41597-2): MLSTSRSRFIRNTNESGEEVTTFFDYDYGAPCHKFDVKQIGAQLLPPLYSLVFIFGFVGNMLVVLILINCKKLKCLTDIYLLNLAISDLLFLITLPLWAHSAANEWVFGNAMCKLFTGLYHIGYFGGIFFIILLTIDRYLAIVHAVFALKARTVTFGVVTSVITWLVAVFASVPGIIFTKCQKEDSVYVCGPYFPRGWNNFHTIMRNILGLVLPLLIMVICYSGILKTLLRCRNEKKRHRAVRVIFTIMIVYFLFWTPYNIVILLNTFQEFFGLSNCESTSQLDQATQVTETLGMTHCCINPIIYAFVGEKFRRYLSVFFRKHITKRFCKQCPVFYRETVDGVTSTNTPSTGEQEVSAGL
Protocol: THP-1 cells were obtained from American Type Culture Collection (Manassas, Va., USA). The THP-1 cells were grown in RPMI-1640 supplemented with 10% fetal bovine serum in a humidified 5% CO2 atmosphere at 37° C. The cell density was maintained […].
THP-1 cells were incubated with 0.5 nM ^125, labeled MCP-1 (Perkin-Elmer Life Sciences, Inc. Boston, Mass.) in the presence of varying concentrations of either unlabeled MCP-1 (R & D Systems, Minneapolis, Minn.) or test compound for 2 hours at 30° C. in a 96 well plate. Cells were then harvested onto a filter plate, dried, and 20 μL of Microscint 20 was added to each well. Plates were counted in a TopCount NXT, Microplate Scintillation & Luminescence Counter (Perkin-Elmer Life Sciences, Inc. Boston, Mass.). Blank values (buffer only) were subtracted from all values and drug treated values were compared to vehicle treated values. 1 μM cold MCP-1 was used for nonspecific binding.
Table 1 lists IC50 values for inhibition of MCP-1 binding to CCR2 obtained for test compounds of the invention.

[2] = Homo sapiens, THP-1, THP-1 cells

IC50 ([1]; THP-1 cells) [nM]	IC50 (CCR2) [nM]	IC50 [1, 2] [nM]	inhibition at 25 µM (CCR2) [%]	Molecule	inhibition at 25 µM ([1]; Homo sapiens) [%]
	2200	3700		COc1ccc(C2CCN(CC(CO)C3CCN(C(=O)/C=C/c4cccc(C)c4)CC3)CC2)cc1 (centres unmarked) [Compound 42]	
	1800	720		COc1ccc(C2CCN(CC(CO)C3CCN(C(=O)Nc4ccc(Cl)c(Cl)c4)CC3)CC2)cc1 (centres unmarked) [Compound 44, 4-{1-hydroxymethyl-2-[4-(4-methoxy-phenyl)-piperidin-1-yl]-ethyl}-piperidine-1-carboxylic acid (3,4-dichloro-phenyl)-amide]	
	5000			O=C(Nc1ccc(Cl)c(Cl)c1)N1CCC(CC(CO)N2CCC(c3c[nH]c4ccccc34)CC2)CC1 (centres unmarked) [Compound 58, 4-{3-hydroxy-2-[4-(1H-indol-3-yl)-piperidin-1-yl]-propyl}-piperidine-1-carboxylic acid (3,4-dichloro-phenyl)-amide]	42
	420	1100		COc1ccc(C2CCN(CC(NC(C)=O)C3CCN(C(=O)C=Cc4cc(F)c(F)c(F)c4)CC3)CC2)cc1 (centres unmarked) [Compound 66, N-(2-[4-(4-methoxy-phenyl)-piperidin-1-yl]-1-{1-[3-(3,4,5-trifluoro-phenyl)-acryloyl]-piperidin-4-yl}-ethyl)-acetamide]	
	40	200		O=C(/C=C/c1cc(F)cc(F)c1)N1CCC(O)(C(O)CN2CCC(c3c[nH]c4ccccc34)CC2)CC1 (centres unmarked) [Compound 71]	
	470	165		O=C(/C=C/c1cccc(F)c1)N1CCC(O)(C(O)CN2CCC(c3c[nH]c4ccccc34)CC2)CC1 (centres unmarked) [Compound 76]	
	500	85		O=C(/C=C/c1cccc(C(F)(F)F)c1)N1CCC(O)(C(O)CN2CCC(c3c[nH]c4ccccc34)CC2)CC1 (centres unmarked) [Compound 77]	
	810	7400		O=C(/C=C/c1ccsc1)N1CCC(O)(C(O)CN2CCC(c3c[nH]c4ccccc34)CC2)CC1 (centres unmarked) [Compound 79]	
	1300	2600		O=C(Nc1ccc(F)c(F)c1)N1CCC(O)(C(O)CN2CCC(c3c[nH]c4ccccc34)CC2)CC1 (centres unmarked) [Compound 82, 4-hydroxy-4-{1-hydroxy-2-[4-(1H-indol-3-yl)-piperidin-1-yl]-ethyl}-piperidine-1-carboxylic acid (3,4-difluoro-phenyl)-amide]	
	550	30		OC(CN1CCC(c2c[nH]c3ccccc23)CC1)C1(O)CCN(C(=S)Nc2ccc(Cl)c(Cl)c2)CC1 (centres unmarked) [Compound 84, 4-hydroxy-4-{1-hydroxy-2-[4-(1H-indol-3-yl)-piperidin-1-yl]-ethyl}-piperidine-1-carbothioic acid (3,4-dichloro-phenyl)-amide]	
	470	3300		O=C(/C=C/c1cc(F)c(F)c(F)c1)N1CCC(O)(C(O)CN2CCC(c3nc4ccccc4[nH]3)CC2)CC1 (centres unmarked) [Compound 87]	
	550	1800		COc1ccc(C2CCN(CC(O)C3CCN(C(=S)Nc4cc(Cl)cc(Cl)c4)CC3)CC2)cc1 (centres unmarked) [Compound 89, 4-{1-hydroxy-2-[4-(4-methoxy-phenyl)-piperidin-1-yl]-ethyl}-piperidine-1-carbothioic acid (3,5-dichloro-phenyl)-amide]	
	1400			COc1ccc(C2CCN(CC(O)C3(O)CCN(C(=O)/C=C/c4cccc(C)c4)CC3)CC2)cc1 (centres unmarked) [Compound 95]	53
13100				COc1ccc(C2CCN(CC(O)C3CCN(C(=S)Nc4cccc(OC)c4)CC3)CC2)cc1 (centres unmarked) [Compound 96, 4-{1-hydroxy-2-[4-(4-methoxy-phenyl)-piperidin-1-yl]-ethyl}-piperidine-1-carbothioic acid (3-methoxy-phenyl)-amide]	
12900				COc1ccc(C2CCN(CC(O)C3CCN(C(=S)Nc4cccc(C(F)(F)F)c4)CC3)CC2)cc1 (centres unmarked) [Compound 97, 4-{1-hydroxy-2-[4-(4-methoxy-phenyl)-piperidin-1-yl]-ethyl}-piperidine-1-carbothioic acid (3-trifluoromethyl-phenyl)-amide]	
		800		COc1ccc(C2CCN(CC(O)C3CCN(C(=S)Nc4ccc(Cl)c(Cl)c4)CC3)CC2)cc1 (centres unmarked) [Compound 98, 4-{1-hydroxy-2-[4-(4-methoxy-phenyl)-piperidin-1-yl]-ethyl}-piperidine-1-carbothioic acid (3,4-dichloro-phenyl)-amide]	
		3500		COc1ccc(C2CCN(CC(O)C3CCN(C(=S)Nc4ccc(Br)c(F)c4)CC3)CC2)cc1 (centres unmarked) [Compound 99, 4-{1-hydroxy-2-[4-(4-methoxy-phenyl)-piperidin-1-yl]-ethyl}-piperidine-1-carbothioic acid (4-bromo-3-fluoro-phenyl)-amide]	
	480	2500		COc1ccc(C2CCN(CC(O)C3CCN(C(=S)Nc4cccc(Cl)c4)CC3)CC2)cc1 (centres unmarked) [Compound 102, 4-{1-hydroxy-2-[4-(4-methoxy-phenyl)-piperidin-1-yl]-ethyl}-piperidine-1-carbothioic acid (3-chloro-phenyl)-amide]	
2200	500			COc1ccc(C2CCN(CC(O)C3CCN(C(=S)Nc4cccc(OC)c4)CC3)CC2)cc1 (centres unmarked) [Compound 103, 4-{1-hydroxy-2-[4-(4-methoxy-phenyl)-piperidin-1-yl]-ethyl}-piperidine-1-carbothioic acid (3-methoxy-phenyl)-amide]	
3400	540			COc1ccc(C2CCN(CC(O)C3CCN(C(=S)Nc4cccc(C(F)(F)F)c4)CC3)CC2)cc1 (centres unmarked) [Compound 105, 4-{1-hydroxy-2-[4-(4-methoxy-phenyl)-piperidin-1-yl]-ethyl}-piperidine-1-carbothioic acid (3-trifluoromethyl-phenyl)-amide]	
	760	2600		COc1ccc(C2CCN(CC(O)C3CCN(C(=S)Nc4ccc(C(F)(F)F)cc4)CC3)CC2)cc1 (centres unmarked) [Compound 106, 4-{1-hydroxy-2-[4-(4-methoxy-phenyl)-piperidin-1-yl]-ethyl}-piperidine-1-carbothioic acid (4-trifluoromethyl-phenyl)-amide]	
480	210			COc1ccc(C2CCN(CC(O)C3CCN(C(=S)Nc4ccc(Cl)c(Cl)c4)CC3)CC2)cc1 (centres unmarked) [Compound 108, 4-{1-hydroxy-2-[4-(4-methoxy-phenyl)-piperidin-1-yl]-ethyl}-piperidine-1-carbothioic acid (3,4-dichloro-phenyl)-amide]	
	1600	4900		COc1ccc(C2CCN(CC(O)C3(O)CCN(C(=O)/C=C/c4ccsc4)CC3)CC2)cc1 (centres unmarked) [Compound 113]	
	1100			COc1ccc(C2CCN(CC(O)C3(O)CCN(C(=O)Nc4ccc(F)c(F)c4)CC3)CC2)cc1 (centres unmarked) [Compound 114, 4-hydroxy-4-{1-hydroxy-2-[4-(4-methoxy-phenyl)-piperidin-1-yl]-ethyl}-piperidine-1-carboxylic acid (3,4-difluoro-phenyl)-amide]	55
	910			COc1ccc(C2CCN(CC(O)C3(O)CCN(C(=O)Nc4cc(F)cc(F)c4)CC3)CC2)cc1 (centres unmarked) [Compound 115, 4-hydroxy-4-{1-hydroxy-2-[4-(4-methoxy-phenyl)-piperidin-1-yl]-ethyl}-piperidine-1-carboxylic acid (3,5-difluoro-phenyl)-amide]	57
			47	OC(CN1CCC(c2c[nH]c3ccc(N4CCOCC4)cc23)CC1)C1(O)CCN(C(=S)Nc2cc(F)cc(F)c2)CC1 (centres unmarked) [Compound 183, 4-hydroxy-4-{1-hydroxy-2-[4-(5-morpholin-4-yl-1H-indol-3-yl)-piperidin-1-yl]-ethyl}-piperidine-1-carbothioic acid (3,5-difluoro-phenyl)-amide]	
			54	CC(=O)Nc1ccc2[nH]cc(C3CCN(CC(O)C4CCNCC4)CC3)c2c1 (centres unmarked) [Compound 185, N-{3-[1-(2-hydroxy-2-piperidin-4-yl-ethyl)-piperidin-4-yl]-1H-indol-5-yl}-acetamide]	

Molecule	IC50 ([1]; THP-1 cells) [nM]	IC50 (CCR2) [nM]	IC50 [1, 2] [nM]	inhibition at 25 µM (CCR2) [%]	inhibition at 25 µM ([1]; Homo sapiens) [%]
4-hydroxy-4-{1-hydroxy-2-hydroxy-2-[4-(1H-indol-3-yl)-piperidin-1-yl]-ethyl}-piperidine-1-carboxylic acid (3,5-difluoro-phenyl)-amide [Compound 81]	1800	2600			
